“Also recorded” adds a separate entry of the source.
Tested on: mixed Gram-negative bacteria
Test: Minimum inhibitory concentration testing (biostat candidate screening, Phase 1 and Phase 2; dip slide counts)
Format: cell-based
Conditions: for Differential Value Scores, Average / Differential Value Scores, Round 1 / Differential Value Scores, Round 2 / Differential Value Scores, Round 3: Phase 1, scale 0-6, 3 = matches DCHA standard; for Differential Value Scores, Average: average of Rounds 1-3; for Differential Value Scores, Round 1 / Differential Value Scores, Round 2 / Differential Value Scores, Round 3: log bacterial counts at 24 and 48 h versus DCHA standard, higher = better; for Biostatic efficacy regarding Gram-negative bacteria compared with the DCHA standard: result in words, 3 wt. % amine in metal working fluid
[1] = Phase 2, Round 1, dilution 3 %, 24 hours
[2] = Phase 2, Round 1, dilution 3 %, 48 hours
[3] = Phase 2, Round 1, dilution 4 %, 24 hours
[4] = Phase 2, Round 1, dilution 4 %, 48 hours
[5] = Phase 2, Round 1, dilution 5 %, 24 hours
[6] = Phase 2, Round 1, dilution 5 %, 48 hours
[7] = Phase 2, Round 2, dilution 4 %, 24 hours
[8] = Phase 2, Round 2, dilution 4 %, 48 hours
[9] = Phase 2, Round 2, dilution 5 %, 24 hours
[10] = Phase 2, Round 2, dilution 5 %, 48 hours
[11] = Phase 2, Round 2, dilution 6 %, 24 hours
[12] = Phase 2, Round 2, dilution 6 %, 48 hours

SMILES	Differential Value Scores, Average	Differential Value Scores, Round 1	Differential Value Scores, Round 2	Differential Value Scores, Round 3	Amount of new Gram-negative bacteria colonies [2]	Amount of new Gram-negative bacteria colonies [8]	Amount of new Gram-negative bacteria colonies [10]	Amount of new Gram-negative bacteria colonies [12]	further results
NCC1CCCC(CN)C1 (stereo not shown) [C2, 1,3-bis(aminomethyl)cyclohexane]	2.5	2.5	4	1					
NC1CCCCC1N (stereo not shown) [C3, 1,2-cyclohexanediamine]	2.3	2	4	1					Biostatic efficacy regarding Gram-negative bacteria compared with the DCHA standard (listed as Comparative Example 3): performed below the DCHA standard
CC1CCCCC1N (stereo not shown) [C5, 2-methylcyclohexylamine]	1.7	1	2.5	1.5					
CCNC1CCCCC1 [C6, N-ethylcyclohexylamine]	1.7	1.5	2.5	1					
NC1CCCCC1 [C7, Cyclohexylamine]	1.5	1	2.5	1					
NCC1CCCCC1 [C8, Aminomethylcyclohexane]	1.5	1	2.5	1					
CCCCC(CC)CN(CC(CC)CCCC)CC(CC)CCCC (stereo not shown) [C9, Tris(2-ethylhexylamine)]					10^7	10^7	10^7	10^7	Amount of new Gram-negative bacteria colonies [1]: 10^7; Amount of new Gram-negative bacteria colonies [3]: 10^5; Amount of new Gram-negative bacteria colonies [4]: 10^7; Amount of new Gram-negative bacteria colonies [5]: 10^4; Amount of new Gram-negative bacteria colonies [6]: 10^7; Amount of new Gram-negative bacteria colonies [7]: 10^3; Amount of new Gram-negative bacteria colonies [9]: 10^2; Amount of new Gram-negative bacteria colonies [11]: 10^2
CCC(N)CCN (stereo not shown) [C10, 1,3-pentanediamine]					10^7	10^7	10^7	10^7	Amount of new Gram-negative bacteria colonies [1]: 10^7; Amount of new Gram-negative bacteria colonies [3]: 10^5; Amount of new Gram-negative bacteria colonies [4]: 10^7; Amount of new Gram-negative bacteria colonies [5]: 10^3; Amount of new Gram-negative bacteria colonies [6]: 10^7; Amount of new Gram-negative bacteria colonies [7]: 10^2; Amount of new Gram-negative bacteria colonies [9]: 10^2; Amount of new Gram-negative bacteria colonies [11]: 10^2
NC1CCC(CC2CCC(N)CC2)CC1 (stereo not shown) [C11, 4,4′-methylene bis(cyclohexylamine)]					10^7	10^7	10^7	10^7	Amount of new Gram-negative bacteria colonies [1]: 10^7; Amount of new Gram-negative bacteria colonies [3]: 10^5; Amount of new Gram-negative bacteria colonies [4]: 10^7; Amount of new Gram-negative bacteria colonies [5]: 10^5; Amount of new Gram-negative bacteria colonies [6]: 10^7; Amount of new Gram-negative bacteria colonies [7]: 10^2; Amount of new Gram-negative bacteria colonies [9]: 10^2; Amount of new Gram-negative bacteria colonies [11]: 10^2
CN(C)CCCN(C)CCCN(C)C [C13, N,N,N′,N″,N″-pentamethyl-dipropylenetriamine]					10^7	10^7	10^7	10^7	Amount of new Gram-negative bacteria colonies [1]: 10^7; Amount of new Gram-negative bacteria colonies [3]: 10^7; Amount of new Gram-negative bacteria colonies [4]: 10^7; Amount of new Gram-negative bacteria colonies [5]: 10^3; Amount of new Gram-negative bacteria colonies [6]: 10^7; Amount of new Gram-negative bacteria colonies [7]: 10^2; Amount of new Gram-negative bacteria colonies [9]: 10^2; Amount of new Gram-negative bacteria colonies [11]: 10^2
CN(C)CCN(C)CCN(C)C [C14, Pentamethyldiethylene triamine]					10^7	10^7	10^7	10^7	Amount of new Gram-negative bacteria colonies [1]: 10^7; Amount of new Gram-negative bacteria colonies [3]: 10^7; Amount of new Gram-negative bacteria colonies [4]: 10^7; Amount of new Gram-negative bacteria colonies [5]: 10^7; Amount of new Gram-negative bacteria colonies [6]: 10^7; Amount of new Gram-negative bacteria colonies [7]: 10^3; Amount of new Gram-negative bacteria colonies [9]: 10^2; Amount of new Gram-negative bacteria colonies [11]: 10^3
NCCCCCCN [Comparative Example C1, 1,6-diaminohexane]	2.5	2	4	1.5					
CCCCCN [Comparative Example C4, Amylamine]	1.7	1.5	2.5	1					Biostatic efficacy regarding Gram-negative bacteria compared with the DCHA standard: worse biostatic capabilities than the DCHA control
CC(C)CCCC(C)N (stereo not shown) [Example 1, 1,5-dimethylhexylamine]	4.3	4.5	4	4.5					
CCCCC(CC)CN (stereo not shown) [Example 2, 2-ethylhexylamine]	4.3	4	4.5	4.5					
CCCCCCCN [Example 3, Heptylamine]	4.2	4	4	4.5					Biostatic efficacy regarding Gram-negative bacteria compared with the DCHA standard: better biostatic performance than the DCHA control
NC1CCC(N)CC1 (stereo not shown) [Example 4, 1,4-cyclohexanediamine]	3.7	4	4.5	2.5					Biostatic efficacy regarding Gram-negative bacteria compared with the DCHA standard: better biostatic performance than the DCHA standard
CCCCCCCCN [Example 6, Octylamine]									Biostatic efficacy regarding Gram-negative bacteria compared with the DCHA standard: surpassed the DCHA standard; also recorded: better biostatic performance than the DCHA control
NCCN(CCN)CCN [Example 7, Tris(2-aminoethyl)amine]					10^3	10^2	10^2	10^2	Biostatic efficacy regarding Gram-negative bacteria compared with the DCHA standard: surpassed the DCHA standard

Source: patent publication US11034913B2, “Metal working fluid” (Henkel AG & Co. KGaA, priority 2015, dated 2021)
